Three molecules from patent US9227921B2, “Salts and polymorphs of a tetracycline compound” (Paratek Pharmaceuticals, Inc., priority 2008, dated 2016) can be followed below.

The structures appear in SMILES notation.

Common to all, as to assay type: physicochemical
Series [1] can be described thus: Relative stabilities of the polymorphic forms (maturation / slurry, XRPD). As to the method:
The relative stabilities of the polymorphic forms of Compound 1 were analyzed. For example, form 1 tosylate salt was subjected to a maturation experiment for 24 hours in either IPA or methyl pentanone, seeded with either form 2 or form 3 tosylate salt. […] A slurry of a 50:50 mixture of form 1 and form 3 were analyzed in IPA for 18 hours at 0° C., 25° C., 40° C., and 60° C., as shown in FIG. 7.

Series [2] can be described thus: Temperature and moisture stability study (HPLC impurity profile). As to the method: A stability study was conducted on tosylate salt and mesylate salt of Compound 1, by monitoring changes in the high performance liquid chromatography (HPLC) impurity profiles for each salt when exposed to various temperatures and/or humidity conditions. Each sample was placed in a closed container and exposed to three controlled environments: refrigerated (5° C.), 20° C. and 60% relative humidity, and 40° C. and 75% relative humidity. […] The stability study of the crystalline tosylate salt was continued.
Samples were analyzed by the following reversed-phase HPLC impurity profile method at time points 0, 1, 2, 4 weeks (Table 7) and 3 months (Table 8) for the tosylate salt; and 0, 1 and 2 weeks for the mesylate salt (Table 9).
Reversed-phase HPLC analysis was conducted using a SYMMETRY SHIELD RP18 column (4.6×250 mm, 5 µm particle size), although analysis using a similar or equivalent column would be expected to yield similar results. The mobile phase components were 0.01 M ammonium acetate in water at pH 3.3 (A) and acetonitrile (B). The mobile phase composition was a gradient that increased from 6% to 15% B in five minutes, held at 15% B for 15 minutes, increased from 15% to 60% B in ten minutes, then from 60% to 90% B in two minutes, and then the system was re-equilibrated at 6% B for four minutes. The flow rate was 1.0 mL/minute, and the injection volume was 10.0 μL. The column temperature was maintained at 30° C. Detection was by ultraviolet light (UV) at 280 nm. The retention time for Compound 1 was approximately 15.7 minutes. The sample solution was prepared in mobile phase A to a final concentration of 2.0 mg/mL.

Series [3] in a line: Stability studies on free base Compound 1 and amorphous diHCl salt. As to conditions: 40° C. The method, then: Stability studies were performed on the free base Compound 1 and an amorphous diHCl salt of Compound 1. This salt was formed by dissolving the compound in aqueous solution, adjusting the pH of the solution to approximately 4.2, followed by lyophilization. The free base degraded in less than one month at 40° C., and approximately three months at 4° C. In contrast, the diHCl salt of Compound 1 was stable for 6 months at 40° C., and for two years at room temperature (25° C.).

In the case of `CN(C)c1cc(CNCC(C)(C)C)c(O)c2c1CC1CC3C(N(C)C)C(O)=C(C(N)=O)C(=O)C3(O)C(O)=C1C2=O.Cc1ccc(S(=O)(=O)O)cc1` (stereo not drawn) [form 1 tosylate salt], in series [1] (50:50 mixture of form 1 and form 3 in IPA, 18 hours at 0° C., 25° C., 40° C., 60° C.), the “change of polymorphic form in slurry” value is “no change of form 1 into form 3”. Besides, in series [1] (24 hours in IPA or methyl pentanone, seeded with form 2 or form 3 tosylate salt), the “change of polymorphic form on maturation” value is “no change of form 1 into form 2 or 3”.

As to `CN(C)c1cc(CNCC(C)(C)C)c(O)c2c1CC1CC3C(N(C)C)C(O)=C(C(N)=O)C(=O)C3(O)C(O)=C1C2=O.CS(=O)(=O)O` (stereo not drawn) [mesylate salt of Compound 1], in series [2] (1 week, 5° C.), the “Compound 1” value came to 98.2%, the “RRT 1.19” value is recorded as 0.17%, the “RRT 1.26 (beta-epimer)” value is listed as 1.6% and the “RRT 1.77” value is given as 0.08%. The “Total Impurities” value in series [2] (1 week, 5° C.) is reported as 1.85%. In series [2] (1 week, 20° C. & 60% RH), the “Compound 1” value is reported as 98.0%, the “RRT 1.19” value is 0.17%, the “RRT 1.26 (beta-epimer)” value is 1.8% and the “RRT 1.77” value is 0.09%. Moreover, the “Total Impurities” value in series [2] (1 week, 20° C. & 60% RH) was found to be 2.06%. Besides, in series [2] (1 week, 40° C. & 75% RH), the “Compound 1” value is reported as 97.1%, the “RRT 0.52” value is recorded as 0.07%, the “RRT 0.77” value was determined as 0.05% and the “RRT 1.19” value was 0.16%. Moreover, in series [2] (1 week, 40° C. & 75% RH), the “RRT 1.26 (beta-epimer)” value is 2.6%, the “RRT 1.77” value is reported as 0.09% and the “Total Impurities” value came to 2.97%. Also, in series [2] (2 weeks, 5° C.), the “Compound 1” value was determined as 98.3%, the “RRT 0.93” value is on record as 0.06%, the “RRT 1.19” value turned out to be 0.20% and the “RRT 1.26 (beta-epimer)” value was found to be 1.3%. In series [2] (2 weeks, 5° C.), the “RRT 1.77” value came to 0.09% and the “Total Impurities” value turned out to be 1.65%. Also, in series [2] (2 weeks, 20° C. & 60% RH), the “Compound 1” value is 98.1%, the “RRT 0.93” value worked out at 0.06%, the “RRT 1.19” value is on record as 0.20% and the “RRT 1.26 (beta-epimer)” value is recorded as 0.11%. For the same molecule, in series [2] (2 weeks, 20° C. & 60% RH), the “RRT 1.77” value is reported as 0.11% and the “Total Impurities” value worked out at 1.87%. For the same molecule, in series [2] (2 weeks, 40° C. & 75% RH), the “Compound 1” value is on record as 96.6%, the “RRT 0.52” value was 0.05%, the “RRT 0.77” value turned out to be 0.07% and the “RRT 0.93” value is 0.06%. Moreover, in series [2] (2 weeks, 40° C. & 75% RH), the “RRT 1.19” value was found to be 0.19%, the “RRT 1.26 (beta-epimer)” value is recorded as 0.11%, the “RRT 1.77” value was found to be 0.11% and the “Total Impurities” value is listed as 3.38%. Besides, the stability result in series [2] (5° C.) is “unstable”. In series [2] (Initial), the “Compound 1” value worked out at 98.3%, the “RRT 1.19” value is 0.20%, the “RRT 1.26 (beta-epimer)” value came to 1.5% and the “Total Impurities” value is recorded as 1.70%.

With `CN(C)c1cc(CNCC(C)(C)C)c(O)c2c1CC1CC3C(N(C)C)C(O)=C(C(N)=O)C(=O)C3(O)C(O)=C1C2=O.Cl.Cl` (stereo not drawn) [diHCl salt of Compound 1], in series [3], the “time for which the substance was stable” value came out at 6 months.
